Data as given in patent publication US12077503B2, “Substituted cyclic amides and their use as herbicides” (FMC CORPORATION, priority 2015, dated 2024).
Like-named read-outs stand apart in the source and are kept apart here.

How the values were obtained:
Type in all cases: in vivo
[1] = tested on: pigweed (Amaranthus retroflexus); test: Test A preemergence; settings: Amaranthus retroflexus, pre-emergence, 240 h; for pest or weed control at 125 g/ha: 125 g ai/ha; for pest or weed control at 500 g/ha: 500 g ai/ha
[2] = tested on: Galium (catchweed bedstraw, Galium aparine); test: Test A postemergence; settings: Galium, post-emergence, 240 h; for pest or weed control at 125 g/ha: 125 g ai/ha
Procedure, shortened: (§1)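 Each rating is a visual injury score from 0 to 100 given about 10 d after treatment, judged against untreated controls kept alongside in the greenhouse. In loam soil–sand blend, seeds got a preemergence directed soil spray, while postemergence plants were 2 to 10 cm tall at spraying.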

[3] = tested on: Kochia (Kochia scoparia); test: Test A postemergence; settings: Bassia scoparia, post-emergence, 240 h; for pest or weed control at 125 g/ha: 125 g ai/ha
Procedure, shortened: as §1

[4] = tested on: barnyardgrass (Echinochloa crus-galli); test: Test A postemergence; settings: Echinochloa crus-galli, post-emergence, 240 h; for pest or weed control at 125 g/ha: 125 g ai/ha
Procedure, shortened: as §1

[5] = tested on: blackgrass (Alopecurus myosuroides); test: Test A postemergence; settings: Alopecurus myosuroides, post-emergence, 240 h; for pest or weed control at 125 g/ha: 125 g ai/ha
Procedure, shortened: as §1

[6] = tested on: corn (Zea mays); test: Test A postemergence; settings: Zea mays, post-emergence, 240 h
Procedure, shortened: as §1

[7] = tested on: giant foxtail (Setaria faberii); test: Test A postemergence; settings: Setaria faberi, post-emergence, 240 h; for pest or weed control at 125 g/ha: 125 g ai/ha
Procedure, shortened: as §1

[8] = tested on: pigweed (Amaranthus retroflexus); test: Test A postemergence; settings: Amaranthus retroflexus, post-emergence, 240 h; for pest or weed control at 125 g/ha: 125 g ai/ha
Procedure, shortened: as §1

[9] = tested on: ragweed (common ragweed, Ambrosia elatior); test: Test A postemergence; settings: Ambrosia artemisiifolia, post-emergence, 240 h; for pest or weed control at 125 g/ha: 125 g ai/ha
Procedure, shortened: as §1

[10] = tested on: ryegrass, Italian (Italian ryegrass, Lolium multiflorum); test: Test A postemergence; settings: Lolium multiflorum, post-emergence, 240 h; for pest or weed control at 125 g/ha: 125 g ai/ha
Procedure, shortened: as §1

[11] = tested on: wheat (Triticum aestivum); test: Test A postemergence; settings: Triticum aestivum, post-emergence, 240 h; for plant injury at 125 g/ha: 125 g ai/ha
Procedure, shortened: as §1

[12] = tested on: barnyardgrass (Echinochloa crus-galli); test: Test B flooded paddy test; settings: Echinochloa crus-galli, Flood, 250 g ai/ha, read-out: Barnyardgrass plant response rating
Procedure, shortened: (§2)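 Rating scale 0–100 (visual, vs untreated controls) after a 13–15 d greenhouse period; application to the flood layer, 3 cm above soil and maintained; plants at 2-leaf stage when treated.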

[13] = tested on: ducksalad (Heteranthera limosa); test: Test B flooded paddy test; settings: Heteranthera limosa, Flood, 250 g ai/ha, read-out: Ducksalad plant response rating
Procedure, shortened: as §2

[14] = tested on: rice (Oryra sativa); test: Test B flooded paddy test; settings: Oryza sativa, Flood, 250 g ai/ha, read-out: Rice plant response rating
Procedure, shortened: as §2

[15] = tested on: sedge, umbrella (small-flower umbrella sedge, Cyperus difformis); test: Test B flooded paddy test; settings: Cyperus difformis, 250 g ai/ha, Flood; 0 to 100 scale where 0 is no effect and 100 is complete control; read-out: Sedge, Umbrella plant response rating
Procedure, shortened: as §2

[16] = scale of 0 to 100 where 0 is no effect and 100 is complete control
[17] = 0 to 100 scale where 0 is no effect and 100 is complete control

Question: Which results are given for `CN1C[C@H](c2cc(F)cc(C(F)(F)F)c2)[C@@H](C(=O)Nc2ccc(F)c(F)c2F)C1=O` [Compound 993]?
Answer: pest or weed control at 125 g/ha ([1]; Preemergence, visual injury rating after approximately 10 d, read-out: Pigweed plant response rating (0 to 100 scale, 0 is no effect, 100 is complete control)): 40%; pest or weed control at 500 g/ha ([1]; preemergence, visual injury rating about 10 d after treatment, 0 to 100 scale (0 no effect, 100 complete control), read-out: Pigweed plant response rating): 80%; pest or weed control at 125 g/ha ([2]; Postemergence, visual injury after approximately 10 d, 0 to 100 scale where 0 is no effect and 100 is complete control, read-out: Plant response rating, Galium): 60%; pest or weed control at 125 g/ha ([3]; Postemergence, visual injury after approximately 10 d, 0 to 100 scale where 0 is no effect and 100 is complete control, read-out: Plant response rating, Kochia): 20%; pest or weed control at 125 g/ha ([4]; Postemergence, visual injury after approximately 10 d, 0 to 100 scale where 0 is no effect and 100 is complete control, read-out: Plant response rating, Barnyardgrass): 90%; pest or weed control at 125 g/ha ([5]; Postemergence, visual injury after approximately 10 d, 0 to 100 scale where 0 is no effect and 100 is complete control, read-out: Plant response rating, Blackgrass): 70%; Corn plant response rating (crop injury, 0 = no effect, 100 = complete kill) at 125 g/ha ([6]; 125 g ai/ha, Postemergence, visual injury after approximately 10 d, 0 to 100 scale where 0 is no effect and 100 is complete control): 80%; pest or weed control at 125 g/ha ([7]; Postemergence, visual injury after approximately 10 d, 0 to 100 scale where 0 is no effect and 100 is complete control, read-out: Plant response rating, Foxtail, Giant): 90%; pest or weed control at 125 g/ha ([8]; Postemergence, visual injury after approximately 10 d, 0 to 100 scale where 0 is no effect and 100 is complete control, read-out: Plant response rating, Pigweed): 30%; pest or weed control at 125 g/ha ([9]; Postemergence, visual injury after approximately 10 d, 0 to 100 scale where 0 is no effect and 100 is complete control, read-out: Plant response rating, Ragweed): 0%; pest or weed control at 125 g/ha ([10]; Postemergence, visual injury after approximately 10 d, 0 to 100 scale where 0 is no effect and 100 is complete control, read-out: Plant response rating, Ryegrass, Italian): 50%; plant injury at 125 g/ha ([11]; Postemergence, visual injury after approximately 10 d, 0 to 100 scale where 0 is no effect and 100 is complete control, read-out: Plant response rating, Wheat): 50%; pest or weed control at 250 g/ha [12, 16]: 70%; pest or weed control at 250 g/ha [13, 16]: 85%; pest or weed control at 250 g/ha [14, 16]: 40%; pest or weed control at 250 g/ha [15]: 60%

Question: `Cc1nc([C@H]2CNC(=O)[C@@H]2C(=O)Nc2cccc(F)c2F)cs1` [Compound 1180] was tested. Which pest or weed control at 125 g/ha ([1]; preemergence, 0 to 100 scale where 0 is no effect and 100 is complete control, approx. 10 d, read-out: Pigweed plant response rating) did it give?
Answer: 0%

Question: What about the pest or weed control at 500 g/ha ([1]; preemergence, 0 to 100 scale where 0 is no effect and 100 is complete control, read-out: Pigweed plant response rating) of the same compound?
Answer: 0%

Question: What about the pest or weed control at 125 g/ha ([2]; postemergence, visual injury vs untreated controls after approx. 10 d, 0 = no effect, 100 = complete control, read-out: Galium plant response rating (0 to 100 scale)) of the same compound?
Answer: 0%

Question: What about the pest or weed control at 500 g/ha ([2]; 500 g ai/ha, postemergence, 0 to 100 scale, 0 is no effect, 100 is complete control, read-out: Galium plant response rating) of the same compound?
Answer: 0%

Question: What about the pest or weed control at 125 g/ha ([3]; postemergence, visual injury vs untreated controls after approx. 10 d, 0 = no effect, 100 = complete control, read-out: Kochia plant response rating (0 to 100 scale)) of the same compound?
Answer: 0%

Question: And the pest or weed control at 500 g/ha ([3]; 500 g ai/ha, postemergence, 0 to 100 scale, 0 is no effect, 100 is complete control, read-out: Kochia plant response rating)?
Answer: 0%

Question: And the pest or weed control at 125 g/ha ([4]; postemergence, visual injury vs untreated controls after approx. 10 d, 0 = no effect, 100 = complete control, read-out: Barnyardgrass plant response rating (0 to 100 scale))?
Answer: 0%

Question: And the pest or weed control at 500 g/ha ([4]; 500 g ai/ha, postemergence, 0 to 100 scale, 0 is no effect, 100 is complete control, read-out: Barnyardgrass plant response rating)?
Answer: 0%

Question: What about the pest or weed control at 125 g/ha ([5]; postemergence, visual injury vs untreated controls after approx. 10 d, 0 = no effect, 100 = complete control, read-out: Blackgrass plant response rating (0 to 100 scale)) of the same compound?
Answer: 0%

Question: And the pest or weed control at 500 g/ha ([5]; 500 g ai/ha, postemergence, 0 to 100 scale, 0 is no effect, 100 is complete control, read-out: Blackgrass plant response rating)?
Answer: 0%

Question: What about the plant injury at 125 g/ha ([6]; 125 g ai/ha, postemergence, visual injury vs untreated controls after approx. 10 d, 0 = no effect, 100 = complete control, read-out: Corn plant response rating (0 to 100 scale)) of the same compound?
Answer: 0%

Question: And the plant injury at 500 g/ha ([6]; 500 g ai/ha, postemergence, 0 to 100 scale, 0 is no effect, 100 is complete control, read-out: Corn plant response rating)?
Answer: 0%

Question: And the pest or weed control at 125 g/ha ([7]; postemergence, visual injury vs untreated controls after approx. 10 d, 0 = no effect, 100 = complete control, read-out: Foxtail, Giant plant response rating (0 to 100 scale))?
Answer: 0%

Question: What about the pest or weed control at 500 g/ha ([7]; 500 g ai/ha, postemergence, 0 to 100 scale, 0 is no effect, 100 is complete control, read-out: Foxtail, Giant plant response rating) of the same compound?
Answer: 0%

Question: What about the pest or weed control at 125 g/ha ([8]; postemergence, visual injury vs untreated controls after approx. 10 d, 0 = no effect, 100 = complete control, read-out: Pigweed plant response rating (0 to 100 scale)) of the same compound?
Answer: 0%

Question: What about the pest or weed control at 500 g/ha ([8]; 500 g ai/ha, postemergence, 0 to 100 scale, 0 is no effect, 100 is complete control, read-out: Pigweed plant response rating) of the same compound?
Answer: 0%

Question: What about the pest or weed control at 125 g/ha ([9]; postemergence, visual injury vs untreated controls after approx. 10 d, 0 = no effect, 100 = complete control, read-out: Ragweed plant response rating (0 to 100 scale)) of the same compound?
Answer: 0%

Question: And the pest or weed control at 500 g/ha ([9]; 500 g ai/ha, postemergence, 0 to 100 scale, 0 is no effect, 100 is complete control, read-out: Ragweed plant response rating)?
Answer: 0%

Question: And the pest or weed control at 125 g/ha ([10]; postemergence, visual injury vs untreated controls after approx. 10 d, 0 = no effect, 100 = complete control, read-out: Ryegrass, Italian plant response rating (0 to 100 scale))?
Answer: 0%

Question: And the pest or weed control at 500 g/ha ([10]; 500 g ai/ha, postemergence, 0 to 100 scale, 0 is no effect, 100 is complete control, read-out: Ryegrass, Italian plant response rating)?
Answer: 0%

Question: And the plant injury at 125 g/ha ([11]; postemergence, visual injury vs untreated controls after approx. 10 d, 0 = no effect, 100 = complete control, read-out: Wheat plant response rating (0 to 100 scale))?
Answer: 0%

Question: What about the plant injury at 500 g/ha ([11]; 500 g ai/ha, postemergence, 0 to 100 scale, 0 is no effect, 100 is complete control, read-out: Wheat plant response rating) of the same compound?
Answer: 0%

Question: What about the pest or weed control at 250 g/ha [12, 17] of the same compound?
Answer: 0%

Question: What about the pest or weed control at 250 g/ha [13, 17] of the same compound?
Answer: 85%

Question: And the pest or weed control at 250 g/ha [14, 17]?
Answer: 0%

Question: And the pest or weed control at 250 g/ha [15]?
Answer: 0%
